Test results from patent publication US20240409585A1, “MACROCYCLIC IMMUNOMODULATORS” (priority 2021, published 2024).
Bridge positions count the residues as written; N and C are the ends. Square brackets hold non-standard residues; d marks the D form. Peptide text beside a SMILES is read from it. * marks the point of attachment. ξ: configuration not given here. Phe(4-CONH2) = NC(=O)c1ccc(C[C@H](N)C(=O)O)cc1; Phe(4-COOH) = N[C@@H](Cc1ccc(C(=O)O)cc1)C(=O)O; Bip = N[C@@H](Cc1ccc(-c2ccccc2)cc1)C(=O)O; Phe(3-Me) = Cc1cccc(C[C@H](N)C(=O)O)c1; Val(3-OH) = CC(C)(O)[C@H](N)C(=O)O; 4Pal = N[C@@H](Cc1ccncc1)C(=O)O; 2Thi = N[C@@H](Cc1cccs1)C(=O)O; Cha = N[C@@H](CC1CCCCC1)C(=O)O; Cit = NC(=O)NCCC[C@H](N)C(=O)O; Ile(3ξ) = CCC(C)[C@H](N)C(=O)O; Thr(3ξ) = CC(O)[C@H](N)C(=O)O; dOrn = NCCC[C@@H](N)C(=O)O; dDab = NCC[C@@H](N)C(=O)O; Carboxymethyl = O=C(O)C*; NMeA = CN[C@@H](C)C(=O)O; Dab = NCC[C@H](N)C(=O)O; Dap = NC[C@H](N)C(=O)O; Piv = CC(C)(C)C(=O)*

Molecular target: T1, PE-labeled human PD-L1-Ig binding to Jurkat cell line over-expressing human PD-1 (Jurkat-PD-1) (Homo sapiens, UniProt Q15116)
T1 construct: expressed in transfected cells; host or cells: Jurkat
T1 sequence (Q15116 25-288): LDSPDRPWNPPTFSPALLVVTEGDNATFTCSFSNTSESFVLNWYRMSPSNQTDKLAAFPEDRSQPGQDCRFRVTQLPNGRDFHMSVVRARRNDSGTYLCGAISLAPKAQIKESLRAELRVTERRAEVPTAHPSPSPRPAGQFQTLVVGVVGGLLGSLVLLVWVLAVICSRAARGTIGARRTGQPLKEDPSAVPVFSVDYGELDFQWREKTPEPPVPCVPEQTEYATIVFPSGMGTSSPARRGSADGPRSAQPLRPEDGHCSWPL
Assay: Jurkat-PD-1 Cell Binding High-Content Screening Assay (CBA): Method 1
Settings: Jurkat-hPD-1 cells, PE-labeled PD-L1-Ig 20 nM final; read-out: Jurkat HPDL1 PD1 IC50 (uM) (Method 1)

| IC50 | SMILES |
| --- | --- |
| 0.01 µM | CC(=O)NCCCC[C@@H]1NC(=O)[C@H](C(C)C)NC(=O)[C@H](CC2CCCCC2)NC(=O)[C@H](CCN)NC(=O)[C@@H](CC(C)C)NC(=O)[C@H](C)N(C)C(=O)[C@H](CCC(N)=O)NC(=O)[C@H](Cc2ccc(-c3ccccc3)cc2)NC(=O)[C@H](C(C)C)NC(=O)[C@H](Cc2cccc(C)c2)NC(=O)[C@H](CC(=O)O)NC(=O)[C@H](Cc2ccc(OCC(=O)O)cc2)NC(=O)[C@H](Cc2ccc(OCC(=O)O)cc2)NC(=O)CSC[C@@H](C(=O)N[C@H](CCCN)C(N)=O)NC1=O [Compound 2155] ({CH2CO}-Y(Carboxymethyl)Y(Carboxymethyl)D[Phe(3-Me)]V[Bip]Q[NMeA][dL][Dab][Cha]VK(Ac)C[dOrn]-NH2; thioether N-14) |
| 0.12 µM | Cc1cccc(C[C@@H]2NC(=O)[C@H](CC(=O)O)NC(=O)[C@H](Cc3ccc(OCC(=O)O)cc3)NC(=O)[C@H](C(C)O)NC(=O)CSC[C@@H](C(=O)N[C@H](CCN)C(N)=O)NC(=O)[C@H](C(C)(C)O)NC(=O)[C@H](C(C)C)NC(=O)[C@H](CC3CCCCC3)NC(=O)[C@H](CCN)NC(=O)[C@@H](CC(C)C)NC(=O)[C@H](C)N(C)C(=O)[C@H](Cc3ccc(OCC(=O)O)cc3)NC(=O)[C@H](Cc3ccc(-c4ccccc4)cc3)NC(=O)[C@H](Cc3ccc(C(=O)O)cc3)NC2=O)c1 (stereo partly drawn) [Compound 2156] ({CH2CO}-[Thr(3ξ)]Y(Carboxymethyl)D[Phe(3-Me)][Phe(4-COOH)][Bip]Y(Carboxymethyl)[NMeA][dL][Dab][Cha]V[Val(3-OH)]C[dDab]-NH2; thioether N-14) |
| 0.04 µM | CCC(C)[C@@H]1NC(=O)[C@H](Cc2ccc(-c3ccccc3)cc2)NC(=O)[C@H](C(C)C)NC(=O)[C@H](Cc2c[nH]c3ccccc23)NC(=O)[C@H](CC(=O)O)NC(=O)[C@H](Cc2ccc(O)cc2)NC(=O)[C@H](Cc2ccncc2)NC(=O)CSC[C@@H](C(=O)N[C@@H](CN)C(N)=O)NC(=O)[C@H](C(C)O)NC(=O)[C@H](C(C)C)NC(=O)[C@H](CC2CCCCC2)NC(=O)[C@H](CC(N)=O)NC(=O)[C@@H](CC(C)C)NC(=O)[C@H](C)N(C)C1=O (stereo partly drawn) [Compound 2157] ({CH2CO}-[4Pal]YDWV[Bip][Ile(3ξ)][NMeA][dL]N[Cha]V[Thr(3ξ)]C[Dap]-NH2; thioether N-14) |
| 0.04 µM | CC(=O)NCC[C@H](NC(=O)[C@@H]1CSCC(=O)N[C@@H](C(C)O)C(=O)N[C@@H](Cc2ccc(OCC(=O)O)cc2)C(=O)N[C@@H](CC(=O)O)C(=O)N[C@@H](Cc2cccc(C)c2)C(=O)N[C@@H](Cc2ccc(C(=O)O)cc2)C(=O)N[C@@H](Cc2ccc(-c3ccccc3)cc2)C(=O)N[C@@H](Cc2ccc(OCC(=O)O)cc2)C(=O)N(C)[C@@H](C)C(=O)N[C@H](CC(C)C)C(=O)N[C@@H](CCN)C(=O)N[C@@H](CC2CCCCC2)C(=O)N[C@@H](C(C)(C)O)C(=O)N[C@@H](Cc2cnc[nH]2)C(=O)N1)C(N)=O (stereo partly drawn) [Compound 2161] ({CH2CO}-[Thr(3ξ)]Y(Carboxymethyl)D[Phe(3-Me)][Phe(4-COOH)][Bip]Y(Carboxymethyl)[NMeA][dL][Dab][Cha][Val(3-OH)]HC[Dab](Ac)-NH2; thioether N-14) |
| 0.02 µM | CC(=O)NCC[C@H](NC(=O)[C@@H]1CSCC(=O)N[C@@H](Cc2ccncc2)C(=O)N[C@@H](Cc2ccc(OCC(=O)O)cc2)C(=O)N[C@@H](CC(=O)O)C(=O)N[C@@H](Cc2cccc(C)c2)C(=O)N[C@@H](Cc2ccc(C(=O)O)cc2)C(=O)N[C@@H](Cc2ccc(-c3ccccc3)cc2)C(=O)N[C@@H](Cc2ccc(OCC(=O)O)cc2)C(=O)N(C)[C@@H](C)C(=O)N[C@H](CC(C)C)C(=O)N[C@@H](CCN)C(=O)N[C@@H](CC2CCCCC2)C(=O)N[C@@H](C(C)(C)O)C(=O)N[C@@H](Cc2cnc[nH]2)C(=O)N1)C(N)=O [Compound 2162] ({CH2CO}-[4Pal]Y(Carboxymethyl)D[Phe(3-Me)][Phe(4-COOH)][Bip]Y(Carboxymethyl)[NMeA][dL][Dab][Cha][Val(3-OH)]HC[Dab](Ac)-NH2; thioether N-14) |
| 0.04 µM | Cc1cccc(C[C@@H]2NC(=O)[C@H](CC(=O)O)NC(=O)[C@H](Cc3ccc(OCC(=O)O)cc3)NC(=O)[C@H](Cc3ccncc3)NC(=O)CSC[C@@H](C(=O)N[C@@H](CCNC(=O)C(C)(C)C)C(N)=O)NC(=O)[C@H](Cc3cnc[nH]3)NC(=O)[C@H](C(C)(C)O)NC(=O)[C@H](CC3CCCCC3)NC(=O)[C@H](CCN)NC(=O)[C@@H](CC(C)C)NC(=O)[C@H](C)N(C)C(=O)[C@H](Cc3ccc(OCC(=O)O)cc3)NC(=O)[C@H](Cc3ccc(-c4ccccc4)cc3)NC(=O)[C@H](Cc3ccc(C(=O)O)cc3)NC2=O)c1 [Compound 2165] ({CH2CO}-[4Pal]Y(Carboxymethyl)D[Phe(3-Me)][Phe(4-COOH)][Bip]Y(Carboxymethyl)[NMeA][dL][Dab][Cha][Val(3-OH)]HC[Dab](Piv)-NH2; thioether N-14) |
| 0.05 µM | Cc1cccc(C[C@@H]2NC(=O)[C@H](CC(=O)O)NC(=O)[C@H](Cc3ccc(OCC(=O)O)cc3)NC(=O)[C@H](C(C)C)NC(=O)CSC[C@@H](C(=O)N[C@@H](CN)C(N)=O)NC(=O)[C@H](C(C)O)NC(=O)[C@H](C(C)(C)O)NC(=O)[C@H](CC3CCCCC3)NC(=O)[C@H](CCN)NC(=O)[C@@H](CC(C)C)NC(=O)[C@H](C)N(C)C(=O)[C@H](CCCNC(N)=O)NC(=O)[C@H](Cc3ccc(-c4ccccc4)cc3)NC(=O)[C@H](Cc3ccc(OCC(=O)O)cc3)NC2=O)c1 (stereo partly drawn) [Compound 2167] ({CH2CO}-VY(Carboxymethyl)D[Phe(3-Me)]Y(Carboxymethyl)[Bip][Cit][NMeA][dL][Dab][Cha][Val(3-OH)][Thr(3ξ)]C[Dap]-NH2; thioether N-14) |
| 0.03 µM | Cc1cccc(C[C@@H]2NC(=O)[C@H](CC(=O)O)NC(=O)[C@H](Cc3ccc(OCC(=O)O)cc3)NC(=O)[C@H](Cc3ccncc3)NC(=O)CSC[C@@H](C(=O)N[C@@H](CN)C(N)=O)NC(=O)[C@H](C(C)O)NC(=O)[C@H](C(C)(C)O)NC(=O)[C@H](CC3CCCCC3)NC(=O)[C@H](CCN)NC(=O)[C@@H](CC(C)C)NC(=O)[C@H](C)N(C)C(=O)[C@H](CCCNC(N)=O)NC(=O)[C@H](Cc3ccc(-c4ccccc4)cc3)NC(=O)[C@H](Cc3ccc(OCC(=O)O)cc3)NC2=O)c1 (stereo partly drawn) [Compound 2168] ({CH2CO}-[4Pal]Y(Carboxymethyl)D[Phe(3-Me)]Y(Carboxymethyl)[Bip][Cit][NMeA][dL][Dab][Cha][Val(3-OH)][Thr(3ξ)]C[Dap]-NH2; thioether N-14) |

The next lines start with the molecule.

| SMILES | IC50 |
| --- | --- |
| Cc1cccc(C[C@@H]2NC(=O)[C@H](CC(=O)O)NC(=O)[C@H](Cc3ccc(OCC(=O)O)cc3)NC(=O)[C@H](CCN)NC(=O)CSC[C@@H](C(=O)N[C@@H](CCN)C(N)=O)NC(=O)[C@H](C(C)O)NC(=O)[C@H](C(C)C)NC(=O)[C@H](CC3CCCCC3)NC(=O)[C@H](CCN)NC(=O)[C@@H](CC(C)C)NC(=O)[C@H](C)N(C)C(=O)[C@H](Cc3ccc(OCC(=O)O)cc3)NC(=O)[C@H](Cc3ccc(-c4ccccc4)cc3)NC(=O)[C@H](Cc3ccc(OCC(=O)O)cc3)NC2=O)c1 (stereo partly drawn) [Compound 2154] ({CH2CO}-[Dab]Y(Carboxymethyl)D[Phe(3-Me)]Y(Carboxymethyl)[Bip]Y(Carboxymethyl)[NMeA][dL][Dab][Cha]V[Thr(3ξ)]C[Dab]-NH2; thioether N-14) | 0.01 µM |
| Cc1cccc(C[C@@H]2NC(=O)[C@H](CC(=O)O)NC(=O)[C@H](Cc3ccc(OCC(=O)O)cc3)NC(=O)[C@H](C(C)O)NC(=O)CSC[C@@H](C(=O)N[C@@H](CCN)C(N)=O)NC(=O)[C@H](Cc3cnc[nH]3)NC(=O)[C@H](C(C)(C)O)NC(=O)[C@H](CC3CCCCC3)NC(=O)[C@H](CCN)NC(=O)[C@@H](CC(C)C)NC(=O)[C@H](C)N(C)C(=O)[C@H](Cc3ccc(C(N)=O)cc3)NC(=O)[C@H](Cc3ccc(-c4ccccc4)cc3)NC(=O)[C@H](Cc3ccc(OCC(=O)O)cc3)NC2=O)c1 (stereo partly drawn) [Compound 2158] ({CH2CO}-[Thr(3ξ)]Y(Carboxymethyl)D[Phe(3-Me)]Y(Carboxymethyl)[Bip][Phe(4-CONH2)][NMeA][dL][Dab][Cha][Val(3-OH)]HC[Dab]-NH2; thioether N-14) | 0.02 µM |
| CC(=O)NCC[C@H](NC(=O)[C@@H]1CSCC(=O)N[C@@H](Cc2cccs2)C(=O)N[C@@H](Cc2ccc(OCC(=O)O)cc2)C(=O)N[C@@H](CC(=O)O)C(=O)N[C@@H](Cc2cccc(C)c2)C(=O)N[C@@H](Cc2ccc(C(=O)O)cc2)C(=O)N[C@@H](Cc2ccc(-c3ccccc3)cc2)C(=O)N[C@@H](Cc2ccc(OCC(=O)O)cc2)C(=O)N(C)[C@@H](C)C(=O)N[C@H](CC(C)C)C(=O)N[C@@H](CCN)C(=O)N[C@@H](CC2CCCCC2)C(=O)N[C@@H](C(C)(C)O)C(=O)N[C@@H](Cc2cnc[nH]2)C(=O)N1)C(N)=O [Compound 2163] ({CH2CO}-[2Thi]Y(Carboxymethyl)D[Phe(3-Me)][Phe(4-COOH)][Bip]Y(Carboxymethyl)[NMeA][dL][Dab][Cha][Val(3-OH)]HC[Dab](Ac)-NH2; thioether N-14) | 0.01 µM |
| Cc1cccc(C[C@@H]2NC(=O)[C@H](CC(=O)O)NC(=O)[C@H](Cc3ccc(OCC(=O)O)cc3)NC(=O)[C@H](C(C)O)NC(=O)CSC[C@@H](C(=O)N[C@@H](CCNC(=O)C(C)(C)C)C(N)=O)NC(=O)[C@H](Cc3cnc[nH]3)NC(=O)[C@H](C(C)(C)O)NC(=O)[C@H](CC3CCCCC3)NC(=O)[C@H](CCN)NC(=O)[C@@H](CC(C)C)NC(=O)[C@H](C)N(C)C(=O)[C@H](Cc3ccc(OCC(=O)O)cc3)NC(=O)[C@H](Cc3ccc(-c4ccccc4)cc3)NC(=O)[C@H](Cc3ccc(C(=O)O)cc3)NC2=O)c1 (stereo partly drawn) [Compound 2164] ({CH2CO}-[Thr(3ξ)]Y(Carboxymethyl)D[Phe(3-Me)][Phe(4-COOH)][Bip]Y(Carboxymethyl)[NMeA][dL][Dab][Cha][Val(3-OH)]HC[Dab](Piv)-NH2; thioether N-14) | 0.05 µM |
| Cc1cccc(C[C@@H]2NC(=O)[C@H](CC(=O)O)NC(=O)[C@H](Cc3ccc(OCC(=O)O)cc3)NC(=O)[C@H](Cc3cccs3)NC(=O)CSC[C@@H](C(=O)N[C@@H](CCNC(=O)C(C)(C)C)C(N)=O)NC(=O)[C@H](Cc3cnc[nH]3)NC(=O)[C@H](C(C)(C)O)NC(=O)[C@H](CC3CCCCC3)NC(=O)[C@H](CCN)NC(=O)[C@@H](CC(C)C)NC(=O)[C@H](C)N(C)C(=O)[C@H](Cc3ccc(OCC(=O)O)cc3)NC(=O)[C@H](Cc3ccc(-c4ccccc4)cc3)NC(=O)[C@H](Cc3ccc(C(=O)O)cc3)NC2=O)c1 [Compound 2166] ({CH2CO}-[2Thi]Y(Carboxymethyl)D[Phe(3-Me)][Phe(4-COOH)][Bip]Y(Carboxymethyl)[NMeA][dL][Dab][Cha][Val(3-OH)]HC[Dab](Piv)-NH2; thioether N-14) | 0.02 µM |
